Results: patent US4892883A, “Pharmaceutical compositions containing bilobalide for the treatment of neuropathies Ai” (Willman - Schwabe GmbH & Co., priority 1973, dated 1990)
Where two headings read alike, the source gives them in different places.

Key:
[1] = tested on: spontaneous climbing behaviour (SCB) of mice; assay: Spontaneous climbing behaviour (SCB) of mice (Table X); format: in vivo, mouse (NMRI); details: for influence of antagonists on the SCB activity of extract and Physostigmine: Scopolamine, Sulpiride, Naloxone, other receptor antagonists; for Mean climbing score, animal: M ± SD
Experimental: In one of these experiments the influence of the extract on the spontaneous climbing behaviour (SCB) was examined according to the method described by Marcais et al. (Psychopharmacology; 56, 233-234, 1978).
*The substances were applied 20 min before the observation period (30
min). In the combination experiments, the second substance was
administered 5 min before the first substance.

[2] = tested on: Oxotremorine induced hypothermia, tremor and salivation in mice; assay: Oxotremorine induced hypothermia, tremor and salivation (Table XIII); format: in vivo, mouse (NMRI); details: for Hypothermia: M ± SD
Experimental: (§1) The analgesia tests were carried out according to the hotplate test (J. Pharm. Pharmacol., 9, 381, 1957) and the tests for hypothermia, tremor and salivation according to the method described by Gouret (J. Pharmacol., 4, 105-128, 1973). Subsequently, the mice were treated with extract and Physostigmine etc., in a manner similar to the method described above in connection with the hypoxia tests.

[3] = tested on: mice; assay: Analgetic effect, hotplate test (Table XII); format: in vivo, mouse (NMRI); details: for Latent period: M ± SD
Experimental: as §1
A The percentage of animals having a latent period of more than 60 sec.

[4] = tested on: mice; assay: Influence on anti-hypoxic effects of Pilocarpine and Physostigmine (Table XI); format: in vivo, mouse (NMRI); details: for Survival time, treated animals: M ± SEM
Experimental: The protective actions of the extract against hypoxia were compared in a Hypobare-Hypoxia model, according to a method described by Nakanishi et al (Life Sci 13, 467-478, 1973). 4 mice (2 control animals and 2 treated animals) were put into a vacuum desiccator (3.51). A negative pressure of 170 mmHg was generated therein within 20 sec. The survival times of the animals under these hypoxia conditions were determined. The test substance was administered intraperitoneally in an aqueous solution 30 min before the experiment began. The control animals were only treated with solvents. The maximum observation period of the survival times was 8 min. The survival time of the treated animals tolerating the hypoxia condition longer than this period was assumed to be 480 sec. None of the control animals survived longer than 180 sec. The percentage of the treated animals surviving longer than 3 min was defined as %-effect of the extract.
The anti-hypoxic effects of the cholinomimetics Pilocarpine and the acetylcholine-esterase inhibitor Physostigmine entering the brain are known. […] The method applied for these experiments was similar to the above-described Hypobare-Hypoxia model. Groups of mice were treated orally with an aqueous suspension of the extract (or with water). Pilocarpine and Physostigmine, respectively (or water) were administered 30 min later. The hypoxia tests were carried out 30 min after the second application.

[5] = tested on: brain and nerves; details: brain of many species, including humans; cited from earlier work
[6] = tested on: brain and nerves; details: brain of various species; cited from earlier work
[7] = Test 1, Physostigmine 0.1 mg/kg s.c.
[8] = Test 1, Physostigmine 0.2 mg/kg s.c.

SMILES: C=CCN1CC[C@]23c4c5ccc(O)c4O[C@H]2C(=O)CC[C@@]3(O)[C@H]1C5 [Naloxone]
- influence of antagonists on the SCB activity of extract and Physostigmine [1]: do not influence the effects of Physostigmine and the extract

SMILES: O=C1CCCN1CC#CCN1CCCC1 [Oxotremorine]
- Salivation ([2]; Oxotremorine 0.1 mg/kg i.p.): 60%
- Tremor ([2]; Oxotremorine 0.1 mg/kg i.p.): 0%
- Hypothermia ([2]; Oxotremorine 0.1 mg/kg i.p.): 2.5 ± 0.82 °C
- Salivation ([2]; Oxotremorine 0.2 mg/kg i.p.): 100%
- Tremor ([2]; Oxotremorine 0.2 mg/kg i.p.): 50%
- Hypothermia ([2]; Oxotremorine 0.2 mg/kg i.p.): 5.23 ± 1.19 °C

SMILES: CNC(=O)Oc1ccc2c(c1)[C@]1(C)CCN(C)[C@@H]1N2C [Physostigmine]
- % effect (animals with latent period of more than 60 sec) [3, 7]: 10%
- Latent period [3, 7]: 31.1 ± 13.9 s
- % effect (animals with latent period of more than 60 sec) [3, 8]: 50%
- Latent period [3, 8]: 44.1 ± 17.69 s
- % effect ([4]; Physostigmine 0.2 mg/kg i.p.): 20%
- Survival time, treated animals ([4]; Physostigmine 0.2 mg/kg i.p., control 80.6 ± 9.64): 190.63 ± 26.2 s
- influence of antagonists on the SCB activity of extract and Physostigmine [1]: inhibited only by specific anti-cholinergic agents entering the brain, such as Scopolamine and not influenced by antagonists to other receptors
- Mean climbing score, animal ([1]; Test II, 0.10 mg/kg s.c.): 1.39 ± 0.92
- Mean climbing score, animal ([1]; Test III, 0.025 mg/kg s.c.): 5.75 ± 1.28
- Mean climbing score, animal ([1]; Test III, 0.05 mg/kg s.c.): 3.88 ± 2.23
- influence on SCB of mice ([1]; words): reduces the SCB of mice

SMILES: CC[C@@H]1C(=O)OC[C@@H]1Cc1cncn1C [Pilocarpine]
- % effect (animals with latent period of more than 60 sec) ([3]; Test 2, Pilocarpine 5 mg/kg s.c.): 10%
- Latent period ([3]; Test 2, Pilocarpine 5 mg/kg s.c., control 15.74 ± 3.47): 24.9 ± 13.32 s
- % effect ([4]; Pilocarpine 2 mg/kg i.p.): 30%
- Survival time, treated animals ([4]; Pilocarpine 2 mg/kg i.p., control 86.7 ± 6.82): 178.6 ± 24.8 s

SMILES: CN1[C@@H]2C[C@@H](OC(=O)[C@H](CO)c3ccccc3)C[C@H]1[C@@H]1O[C@@H]12 [Scopolamine]
- Mean climbing score, animal ([1]; Test II, 0.25 mg/kg i.p.): 6.63 ± 1.42

SMILES: CCN1CCCC1CNC(=O)c1cc(S(N)(=O)=O)ccc1OC (centres unmarked) [Sulpiride]
- influence of antagonists on the SCB activity of extract and Physostigmine [1]: do not influence the effects of Physostigmine and the extract

SMILES: Oc1c(Cl)cc(Cl)c(Cl)c1Cc1c(O)c(Cl)cc(Cl)c1Cl [hexachlorophene, 2,2'-methylene-bis(3,4,6-trichlorophenol)]
- neurotoxic effect [5]: produces oedematous damage in the brain of many species, including humans

SMILES: C[CH2][Sn]([Cl])([CH2]C)[CH2]C [triethyltin chloride]
- neurotoxic effect [6]: brings about an increase in the water content in the brain of various species and induces specific myelopathy in the nerves
